Experimental data taken from PubChem BioAssay AID1259426 (Fisher Drug Discovery Resource Center, 2018).
Activity calls are given as the source filed them.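 The calls were made as follows: active = EC50 under a set limit in control cells lacking the mosquito receptor, marking a fluorescence artifact; inactive = the rest.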

These molecules were tested against HEK293 Galpha15/GCaMP6s without NPYLR7, calcium fluorescence (assay: nonspecific activation in parental Galpha15/GCaMP6s cells – cell-based, HEK293 lacking NPYLR7, counter-screen for mosquito NPYLR7 agonist project, dose response (AID 1259426);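 also: potency for a rise in fluorescence over baseline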).

EC50	SMILES
> 20 µM (inactive)	CC1CC2(C)Oc3ccccc3C3OCC1(CO)C(C)C32 (stereo not drawn)
6.92 µM	CC(C(=O)O)n1c(O)c(C=C2C=Nc3ccccc32)sc1=S (stereo not drawn)
> 20 µM (inactive)	O=C1/C(=C/c2cc3ccccc3o2)Oc2cc(O)ccc21
> 20 µM (inactive)	O=P1(Nc2cc(C(F)(F)F)ccc2Cl)C=C(c2ccccc2)OC(c2ccccc2)=C1
< 0.039 µM	CC(C)NC[C@H](O)c1ccc(O)c(O)c1
< 0.039 µM	CNC[C@@H](O)c1ccc(O)c(O)c1
4.8 µM	COc1ccc(/C=C2\Oc3c(ccc4c3CN(CC3CCCO3)CO4)C2=O)cc1OC (stereo not drawn)
> 20 µM (inactive)	O=C(c1nccc2ccccc12)N1CCN(CC2CCCC2)CC1
11.1 µM	COc1cccc(CN2COc3ccc4c(c3C2)O/C(=C\c2ccncc2)C4=O)c1
12.7 µM	CN1CCN(Cc2c(O)ccc3c2O/C(=C\c2cc4cc(Br)ccc4o2)C3=O)CC1
> 20 µM (inactive)	Cc1c(NC(=O)COC(=O)C(C#N)=Cc2ccc(N(C)C)cc2)c(=O)n(-c2ccccc2)n1C
0.0722 µM	CC(=O)NCCc1ccc(O)c(O)c1
> 20 µM (inactive)	CCN(CC)CC[n+]1c(C)cc(C=C2Sc3ccccc3N2C)cc1C
7.76 µM	N#CC1C(=N)SC(=N)C(C#N)C1c1ccc(Cl)cc1Cl (stereo not drawn)
> 20 µM (inactive)	CCCc1nn2c(N)c(C=C3C=C(Cl)C(=O)C(Cl)=C3)c(=O)nc2s1
1.98 µM	CN1C(=CC=C2C(=O)Oc3ccccc3C2=O)C(C)(C)c2ccccc21
19.5 µM	COc1cc(C=C(C#N)S(=O)(=O)c2cc(Br)ccc2Br)ccc1O
< 0.039 µM	CCN(CC)C1=CC2=CC(=C(C#N)C#N)CCC2CC1 (stereo not drawn)
6.08 µM	COc1cc(/C=C(\C#N)C(=O)c2ccc(O)c(O)c2)cc(I)c1O
> 20 µM (inactive)	CC(C)N=c1c([N+](=O)[O-])nn(-c2ccc(Cl)cc2)n1O
> 20 µM (inactive)	COc1ccc(CCN2COc3ccc4c(c3C2)O/C(=C\c2cccnc2)C4=O)cc1
0.743 µM	CCc1nn(C(C)C(=O)NC(C)CCc2ccco2)c(=O)c2cc3occc3n12 (stereo not drawn)

EC50	SMILES
> 20 µM (inactive)	O=C(O)c1[nH]ncc1CN1CCc2onc(-c3ccc(C(F)(F)F)cc3)c2C1
13.3 µM	O=C(O)CN1C(=O)/C(=C\c2ccc(O)cc2)SC1=S
> 20 µM (inactive)	CCCc1[nH]n(-c2ccc(Cl)cc2)c(=O)c1/C=C1\NC(=O)N(Cc2ccc(C)cc2)C1=O
> 20 µM (inactive)	CSc1nnc2c(n1)OC(c1ccc(OC(=O)c3ccc(Br)cc3)cc1)Nc1ccccc1-2 (stereo not drawn)
0.289 µM	O=C(O)CN1C(=O)/C(=C/c2cc(Br)c(O)c(Br)c2)SC1=S
1.94 µM	N#Cc1cc2cc(Cl)cc(Cl)c2oc1=O
2.31 µM	O=C1CSC(=S)N1N=Cc1cc(Br)c(O)c(Br)c1
> 20 µM (inactive)	COc1cc(-c2nc3n(n2)C(c2ccc(O)cc2)C(C(N)=O)=C(C)N3)cc(OC)c1OC (stereo not drawn)
1.86 µM	CC1(C)OC2OC(C(O)c3cc(O)c4c(c3O)C(=O)c3ccccc3C4=O)C(C)(O)C2O1 (stereo not drawn)
18.3 µM	O=c1nc2n3ccc(-c4ccncc4)cc3ncc-2s1
> 20 µM (inactive)	COc1ccc2oc(=O)c(-c3nnc(Nc4cc(Cl)ccc4OC)s3)cc2c1
> 20 µM (inactive)	COc1cccc(CN2C(=O)c3cccc(N)c3C2=O)c1
< 0.039 µM	C[n+]1c2cc(N)ccc2cc2ccc(N)cc21
> 20 µM (inactive)	COc1ccc(-c2cnn(CCC(N)=O)c2)c(C)c1
> 20 µM (inactive)	CCN1C(=Cc2cc(C)[n+](C3CCCCC3)c(C)c2)Sc2ccccc21
0.346 µM	CN(C)c1ccc(/C=C2/SC(=S)N(CC(=O)O)C2=O)cc1Br
19.3 µM	N#C/C(=C/c1ccc(N2CCCCCC2)o1)c1ccc(F)cc1
14.7 µM	CCOc1cc2c(cc1C=C(C#N)C#N)OC(C)C2 (stereo not drawn)
1.7 µM	COc1cc(/C=C/c2nc3ccccc3o2)cc(Cl)c1O
4.83 µM	COc1cc(C=C2Oc3cc(O)ccc3C2=O)cc(OC)c1OC
> 20 µM (inactive)	Cc1nn(C)c(Cl)c1/C=C1/CCCc2c1nc1ccccc1c2C(=O)O
